Source: patent US12234238B2, “Antimicrobial compounds and methods of making and using the same” (BIOVERSYS AG, priority 2017, dated 2025)

Key:
[1] = tested on: Eschericia coli (E. coli) strain ATCC25922; assay: standard microdilution assay to determine minimum inhibitory concentrations (MICs), E. coli; format: cell-based; details: Escherichia coli
Method: (§1) The in vitro activity of the compounds of the present disclosure can be determined. Antimicrobial testing is typically performed to determine the minimum inhibitory concentration (MIC). Minimum inhibitory concentrations (MICs) are determined by the microdilution method in a final volume of 100 μl according to protocols outlined by The Clinical and Laboratory Standards Institute (CLSI). Performance standards for reference strains are assessed within the same experimental design to maintain quality control. See, for example, Clinical Laboratory Standards Institute: Methods for dilution antimicrobial susceptibility tests for bacteria that grow aerobically M7-A8. Approved Standard-Eighth Edition. Wayne, PA: CLSI; December 2008: and Clinical Laboratory Standards Institute: Performance Standards for Antimicrobial Susceptibility Testing M100-S20; Approved Standard-Twentieth Edition. Wayne, PA: CLSI; June 2010. The compounds of the present disclosure were tested for antimicrobial activity. The Compounds 1-122 were run against Eschericia coli (E. coli) strain ATCC25922 and against Staphylococcus aureus (S. aureus) 11540 strain using a standard microdilution assay to determine minimum inhibitory concentrations (MICs). […] It will be recognized by one skilled in the art that the compounds can be assessed against other bacterial organisms and that the presentation of data for activity against Eschericia coli and Staphylococcus aureus are illustrative and in no way is intended to limit the scope of the present disclosure. The compounds of the present disclosure can be assayed against a range of other microorganisms depending upon the performance activity desired to be gathered. Furthermore, the “+” and “−” representation and the selection of a cutoff value of 16 micrograms/mL is also illustrative and in no way is intended to limit the scope of the present disclosure.

[2] = tested on: Staphylococcus aureus (S. aureus) 11540 strain; assay: standard microdilution assay to determine minimum inhibitory concentrations (MICs), S. aureus; format: cell-based
Method: as §1

## N=C(N)SCC[C@@H]1CCC[C@@H](c2ccc(-n3cc4cc(-c5cc(CCC[C@@H](N)C6CC6)cc(Cl)c5F)[nH]c4nc3=O)cc2)N1 [Compound 1]
[1]
  MIC: ≤ 16 µg/mL
[2]
  MIC: ≤ 16 µg/mL

## C[C@H](N)CCCc1cc(Cl)c(F)c(-c2cc3cn(-c4ccc([C@@H]5CCC[C@@H](CCSC6=NCCN6)N5)cc4)c(=O)nc3[nH]2)c1 [Compound 2]
[1]
  MIC: ≤ 16 µg/mL
[2]
  MIC: ≤ 16 µg/mL

## N[C@H](CCCc1cc(Cl)c(F)c(-c2cc3cn(-c4ccc([C@@H]5CCC[C@@H](CCSC6=NCCN6)N5)cc4)c(=O)nc3[nH]2)c1)C1CC1 [Compound 3]
[1]
  MIC: ≤ 16 µg/mL
[2]
  MIC: ≤ 16 µg/mL

## C[C@H](N)CCCc1cc(Cl)c(F)c(-c2cc3cn(-c4ccc([C@@H]5CCC[C@@H](CCSC(=N)N)N5CCCF)cc4)c(=O)nc3[nH]2)c1 [Compound 4]
[1]
  MIC: ≤ 16 µg/mL
[2]
  MIC: ≤ 16 µg/mL

## N=C(N)SCC[C@@H]1CCC[C@@H](c2ccc(-n3cc4cc(-c5cc(CCC[C@@H](N)C6CC6)cc(Cl)c5F)[nH]c4nc3=O)cc2)N1CCCF [Compound 5]
[1]
  MIC: ≤ 16 µg/mL
[2]
  MIC: ≤ 16 µg/mL

## C[C@H](N)CCCc1cc(Cl)c(F)c(-c2cc3cn(-c4ccc([C@@H]5CCC[C@@H](CCSC(=N)N)N5CCCO)cc4)c(=O)nc3[nH]2)c1 [Compound 6]
[1]
  MIC: ≤ 16 µg/mL
[2]
  MIC: ≤ 16 µg/mL

## N=C(N)SCC[C@@H]1CCC[C@@H](c2ccc(-n3cc4cc(-c5cc(CCC[C@@H](N)C6CC6)cc(Cl)c5F)[nH]c4nc3=O)cc2)N1CCCO [Compound 7]
[1]
  MIC: ≤ 16 µg/mL
[2]
  MIC: ≤ 16 µg/mL

## N=C(N)SCC[C@@H]1CCC[C@@H](c2ccc(-n3cc4cc(-c5cc(CCC[C@@H](N)CO)cc(Cl)c5F)[nH]c4nc3=O)cc2)N1 [Compound 8]
[1]
  MIC: ≤ 16 µg/mL
[2]
  MIC: ≤ 16 µg/mL

## C[C@H](N)CCCc1cc(Cl)c(F)c(-c2cc3cn(-c4ccc([C@H](C)NCCCSC(=N)N)cc4)c(=O)nc3[nH]2)c1 [Compound 9]
[1]
  MIC: ≤ 16 µg/mL
[2]
  MIC: ≤ 16 µg/mL

## N=C(N)SCC[C@@H]1CCC[C@@H](c2ccc(-n3cc4cc(-c5cc(CCC[C@@H](N)COC(=O)c6ccccc6)cc(Cl)c5F)[nH]c4nc3=O)cc2)N1 [Compound 10]
[1]
  MIC: ≤ 16 µg/mL
[2]
  MIC: ≤ 16 µg/mL

## C[C@H](NCC[C@H](C)SC(=N)N)c1ccc(-n2cc3cc(-c4cc(CCC[C@@H](N)C5CC5)cc(Cl)c4F)[nH]c3nc2=O)cc1 [Compound 11]
[1]
  MIC: ≤ 16 µg/mL
[2]
  MIC: ≤ 16 µg/mL

## C[C@H](N)CCCc1cc(Cl)c(F)c(-c2cc3cn(-c4ccc([C@@H]5CCCCN5CCCSC(=N)N)cc4)c(=O)nc3[nH]2)c1 [Compound 12]
[1]
  MIC: ≤ 16 µg/mL
[2]
  MIC: ≤ 16 µg/mL

## N=C(N)SCCCN1CCCC[C@H]1c1ccc(-n2cc3cc(-c4cc(CCC[C@@H](N)C5CC5)cc(Cl)c4F)[nH]c3nc2=O)cc1 [Compound 13]
[1]
  MIC: ≤ 16 µg/mL
[2]
  MIC: ≤ 16 µg/mL

## C[C@H](N)CCCc1cc(Cl)c(F)c(-c2cc3cn(-c4ccc([C@@H]5CC=CCN5CCCSC(=N)N)cc4)c(=O)nc3[nH]2)c1 [Compound 14]
[1]
  MIC: ≤ 16 µg/mL
[2]
  MIC: ≤ 16 µg/mL

## N=C(N)SCCCN1CC=CC[C@H]1c1ccc(-n2cc3cc(-c4cc(CCC[C@@H](N)C5CC5)cc(Cl)c4F)[nH]c3nc2=O)cc1 [Compound 15]
[1]
  MIC: ≤ 16 µg/mL
[2]
  MIC: ≤ 16 µg/mL

## C[C@H](N)CCCc1cc(Cl)c(F)c(-c2cc3cn(-c4ccc([C@@H]5CC=C[C@@H](CCSC(=N)N)N5)cc4)c(=O)nc3[nH]2)c1 [Compound 16]
[1]
  MIC: ≤ 16 µg/mL
[2]
  MIC: ≤ 16 µg/mL

## C[C@H](N)CCCc1cc(Cl)c(F)c(-c2cc3cn(-c4ccc([C@@H]5CCC[C@@H](CCO)N5CCCSC(=N)N)cc4)c(=O)nc3[nH]2)c1 [Compound 17]
[1]
  MIC: ≤ 16 µg/mL
[2]
  MIC: ≤ 16 µg/mL

## N=C(N)SCCCN1[C@H](CCO)CCC[C@H]1c1ccc(-n2cc3cc(-c4cc(CCC[C@@H](N)C5CC5)cc(Cl)c4F)[nH]c3nc2=O)cc1 [Compound 18]
[1]
  MIC: ≤ 16 µg/mL
[2]
  MIC: ≤ 16 µg/mL

## C[C@H](N)CCCc1cc(Cl)c(F)c(-c2cc3cn(-c4ccc([C@@H]5CCC[C@@H](CCSC(=N)N)N5CCCSC(=N)N)cc4)c(=O)nc3[nH]2)c1 [Compound 19]
[1]
  MIC: ≤ 16 µg/mL
[2]
  MIC: ≤ 16 µg/mL

## N=C(N)SCCCN1[C@H](CCSC(=N)N)CCC[C@H]1c1ccc(-n2cc3cc(-c4cc(CCC[C@@H](N)C5CC5)cc(Cl)c4F)[nH]c3nc2=O)cc1 [Compound 20]
[1]
  MIC: ≤ 16 µg/mL
[2]
  MIC: ≤ 16 µg/mL

## C[C@H](N)CCCc1cc(Cl)c(F)c(-c2cc3cn(-c4ccc([C@@H]5CCC[C@@H](CCSC(=N)N)N5)c(F)c4)c(=O)nc3[nH]2)c1 [Compound 21]
[1]
  MIC: ≤ 16 µg/mL
[2]
  MIC: ≤ 16 µg/mL

## N=C(N)SCC[C@@H]1CCC[C@@H](c2ccc(-n3cc4cc(-c5cc(CCC[C@@H](N)CO)cc(Cl)c5F)[nH]c4nc3=O)cc2F)N1 [Compound 22]
[1]
  MIC: ≤ 16 µg/mL
[2]
  MIC: ≤ 16 µg/mL

## C[C@H](N)Cc1cc(Cl)c(F)c(-c2cc3cn(-c4ccc([C@@H]5CCC[C@@H](CCSC(=N)N)N5)cc4)c(=O)nc3[nH]2)c1 [Compound 23]
[1]
  MIC: ≤ 16 µg/mL
[2]
  MIC: ≤ 16 µg/mL

## C[C@@H](N)Cc1cc(Cl)c(F)c(-c2cc3cn(-c4ccc([C@@H]5CCC[C@@H](CCSC(=N)N)N5)cc4)c(=O)nc3[nH]2)c1 [Compound 24]
[1]
  MIC: ≤ 16 µg/mL
[2]
  MIC: ≤ 16 µg/mL

## N=C(N)SCC[C@@H]1CCC[C@@H](c2ccc(-n3cc4cc(-c5cc(CCC[C@@H](N)C6CC6)cc(Cl)c5F)[nH]c4nc3=O)cc2F)N1 [Compound 25]
[1]
  MIC: ≤ 16 µg/mL
[2]
  MIC: ≤ 16 µg/mL

## C[C@H](N)CCCc1cc(Cl)c(F)c(-c2cc3cn(-c4ccc([C@H](C)NCC[C@H](C)SC(=N)N)cc4)c(=O)nc3[nH]2)c1 [Compound 26]
[1]
  MIC: ≤ 16 µg/mL
[2]
  MIC: ≤ 16 µg/mL

## C[C@H](NCCCSC(=N)N)c1ccc(-n2cc3cc(-c4cc(CCC[C@@H](N)C5CC5)cc(Cl)c4F)[nH]c3nc2=O)cc1 [Compound 27]
[1]
  MIC: ≤ 16 µg/mL
[2]
  MIC: ≤ 16 µg/mL

## C[C@H](O)CCCc1cc(Cl)c(F)c(-c2cc3cn(-c4ccc([C@@H]5CCC[C@@H](CCSC(=N)N)N5)cc4)c(=O)nc3[nH]2)c1 [Compound 28]
[1]
  MIC: ≤ 16 µg/mL
[2]
  MIC: ≤ 16 µg/mL

## C[C@@H](N)CCc1cc(Cl)c(F)c(-c2cc3cn(-c4ccc([C@@H]5CCC[C@@H](CCSC(=N)N)N5)cc4)c(=O)nc3[nH]2)c1 [Compound 29]
[1]
  MIC: ≤ 16 µg/mL
[2]
  MIC: ≤ 16 µg/mL

## C[C@H](O)CNCc1cc(Cl)c(F)c(-c2cc3cn(-c4ccc([C@@H]5CCC[C@@H](CCSC(=N)N)N5)cc4)c(=O)nc3[nH]2)c1 [Compound 30]
[1]
  MIC: ≤ 16 µg/mL
[2]
  MIC: ≤ 16 µg/mL

## C[C@H](N)CCCN1CCCC1c1cc2cn(-c3ccc([C@@H]4CCC[C@@H](CCSC(=N)N)N4)cc3)c(=O)nc2[nH]1 (some centres unmarked) [Compound 31]
[1]
  MIC: ≤ 16 µg/mL
[2]
  MIC: ≤ 16 µg/mL

## C[C@H](N)CCCN1CCCCC1c1cc2cn(-c3ccc([C@@H]4CCC[C@@H](CCSC(=N)N)N4)cc3)c(=O)nc2[nH]1 (some centres unmarked) [Compound 33]
[1]
  MIC: ≤ 16 µg/mL
[2]
  MIC: ≤ 16 µg/mL

## N=C(N)SCC[C@@H]1CCC[C@@H](c2ccc(-n3cc4cc(-c5cc(CCC[C@@H](N)COc6ccccc6)cc(Cl)c5F)[nH]c4nc3=O)cc2)N1 [Compound 35]
[1]
  MIC: ≤ 16 µg/mL
[2]
  MIC: ≤ 16 µg/mL

## C=C[C@H](N)CCCc1cc(Cl)c(F)c(-c2cc3cn(-c4ccc([C@@H]5CCC[C@@H](CCSC(=N)N)N5)c(F)c4)c(=O)nc3[nH]2)c1 [Compound 36]
[1]
  MIC: ≤ 16 µg/mL
[2]
  MIC: ≤ 16 µg/mL

## C[C@H](N)CCc1cc(Cl)c(F)c(-c2cc3cn(-c4ccc([C@@H]5CCC[C@@H](CCSC(=N)N)N5)cc4)c(=O)nc3[nH]2)c1 [Compound 37]
[1]
  MIC: ≤ 16 µg/mL
[2]
  MIC: ≤ 16 µg/mL

## C[C@@H](O)CNCc1cc(Cl)c(F)c(-c2cc3cn(-c4ccc([C@@H]5CCC[C@@H](CCSC(=N)N)N5)cc4)c(=O)nc3[nH]2)c1 [Compound 38]
[1]
  MIC: ≤ 16 µg/mL
[2]
  MIC: ≤ 16 µg/mL

## COc1ccc(OC[C@H](N)CCCc2cc(Cl)c(F)c(-c3cc4cn(-c5ccc([C@@H]6CCC[C@@H](CCSC(=N)N)N6)cc5)c(=O)nc4[nH]3)c2)cc1 [Compound 39]
[1]
  MIC: ≤ 16 µg/mL
[2]
  MIC: ≤ 16 µg/mL

## Cc1ccccc1OC[C@H](N)CCCc1cc(Cl)c(F)c(-c2cc3cn(-c4ccc([C@@H]5CCC[C@@H](CCSC(=N)N)N5)cc4)c(=O)nc3[nH]2)c1 [Compound 40]
[1]
  MIC: ≤ 16 µg/mL
[2]
  MIC: ≤ 16 µg/mL

## CNC(=N)SCC[C@@H]1CCC[C@@H](c2ccc(-n3cc4cc(-c5cc(CCC[C@H](C)N)cc(Cl)c5F)[nH]c4nc3=O)cc2)N1 [Compound 41]
[1]
  MIC: ≤ 16 µg/mL
[2]
  MIC: ≤ 16 µg/mL

## C[C@H](N)CCCc1cc(Cl)c(F)c(-c2cc3cn(-c4ccc([C@@H]5CCC[C@@H](CCSC(=N)N)N5C)cc4)c(=O)nc3[nH]2)c1 [Compound 42]
[1]
  MIC: ≤ 16 µg/mL
[2]
  MIC: ≤ 16 µg/mL

## C/N=C(\NC)SCC[C@@H]1CCC[C@@H](c2ccc(-n3cc4cc(-c5cc(CCC[C@H](C)N)cc(Cl)c5F)[nH]c4nc3=O)cc2)N1 [Compound 43]
[1]
  MIC: ≤ 16 µg/mL
[2]
  MIC: ≤ 16 µg/mL

## C[C@H](N)CCCc1cc(Cl)c(F)c(-c2cc3cn(-c4ccc([C@@H]5CCC[C@@H](CCSC(=N)N(C)C)N5)cc4)c(=O)nc3[nH]2)c1 [Compound 44]
[1]
  MIC: ≤ 16 µg/mL
[2]
  MIC: ≤ 16 µg/mL

## C=C[C@H](N)CCCc1cc(Cl)c(F)c(-c2cc3cn(-c4ccc([C@@H]5CCC[C@@H](CCSC(=N)N)N5)cc4)c(=O)nc3[nH]2)c1 [Compound 45]
[1]
  MIC: ≤ 16 µg/mL
[2]
  MIC: ≤ 16 µg/mL
